The source of these data is PubChem BioAssay AID1996.

Each structure is given as a SMILES string. ≈ marks a conversion by molar mass, not a printed value. Residues, ends and D or L forms follow the SMILES beside them. *: point of attachment. Cbz = O=C(OCc1ccccc1)*

For the data set the following is noted: buffer; pH 7.4; 200.0 µM.
On to `Cn1cc(CCC(=O)NCCCc2ccccc2)c2ccccc21`, for which the solubility (kinetic) (in general, solubility judged after dilution from a stock solution rather than from solid) stood at 25.8 µg/mL (≈ 80.5 µM).
To `O=C(c1cncc(Br)c1)N1CCN(S(=O)(=O)c2ccc3ccccc3c2)CC1` belongs 6.5 µg/mL (≈ 14.1 µM); to `O=C(CC1CC2CCC1C2)NC1CCCCCCC1` (stereo not given), 4.5 µg/mL (≈ 17.1 µM).
The compound `Cc1ccc(S(=O)(=O)N2CCOCC2)cc1C(=O)OCC(=O)N1CCCC1=O` registered a solubility (kinetic) of over 61.6 µg/mL.
In the case of `COc1cccc(NC(=O)c2cnc[nH]2)c1` it was 30.5 µg/mL (≈ 140 µM); in that of `CC(=O)c1cccc(NC(=S)NC2CCCCCCC2)c1`, 6 µg/mL (≈ 19.7 µM).
To `CC1CC(C)CN(C(=O)C(C)N2CCN(S(=O)(=O)c3ccccc3F)CC2)C1` (stereo not given) belongs 51.7 µg/mL (≈ 126 µM).
To `Cc1ccc(Cn2ccsc2=NC(=O)COC(=O)c2ccc(O)cc2O)cc1` belongs 2.7 µg/mL (≈ 6.78 µM).
For `COc1ccc2c(c1)c(C)cc[n+]2Cc1ccccc1.[Cl-]`, the kinetic solubility is 31.9 µg/mL.
To `CC(C)CC1C2C(=O)N(c3ccccc3)C(=O)C2ON1c1ccccc1` (stereo not given) belongs 27.7 µg/mL (≈ 79 µM); to `CSc1ncc2c(=O)[nH]c(-c3ccccc3)nc2n1`, over 40.5 µg/mL; to `CC1(C)Cc2ccccc2C(C(=O)c2ccccc2)=N1`, 31 µg/mL (≈ 118 µM).
Turning to `O=C(COC(=O)Cc1ccccc1F)NCc1ccc(Cl)cc1`, the kinetic solubility was 17.5 µg/mL (≈ 52.1 µM).
To `O=C(CN1CCN(Cc2ccccc2Cl)C1=O)NCc1ccccn1` belongs over 53.8 µg/mL.
In the case of `CCOc1ccc2nc(SCC(=O)Nc3cc(C)on3)c(C)cc2c1`, the solubility (kinetic) was under 0.3 µg/mL.
As to `Cc1ccc(Nc2ncnc(-n3cccc3)n2)cc1Cl`, the kinetic solubility was under 0.1 µg/mL.
As for `CC12CCC(=O)N1C(C(=O)NCc1ccccc1F)CS2` (stereo not given), the solubility (kinetic) stood at 44.7 µg/mL (≈ 145 µM).
To `CC1CC(C)CN(S(=O)(=O)CC23CCC(CC2=O)C3(C)C)C1` (stereo not given) belongs 44.8 µg/mL (≈ 137 µM).
`Cc1cc(C)c(S(=O)(=O)NC2CC(C)(C)NC(C)(C)C2)cc1Br` came in with a kinetic solubility of 12.5 µg/mL (≈ 31 µM).
In turn, `Cc1ccc(C(=O)N/C(=C\c2cccnc2)C(=O)N2CCCC2)cc1` registered a kinetic solubility of over 50.3 µg/mL.
In the case of `OCC(O)CNC(=S)NC1CCCCC1` (stereo not given) it was over 34.9 µg/mL; in that of `O=C(O)c1cc(-c2ccccc2)n(-c2ccc(F)cc2)n1`, over 42.3 µg/mL; in that of `N#CCc1ccc(NC(=O)Nc2cccc3ccccc23)cc1`, 0.6 µg/mL (≈ 1.99 µM).
To `C[C@@H]1NC(=O)/C(=C\c2ccccc2Cl)NC1=O` belongs 12.8 µg/mL (≈ 51.1 µM).
Take `Cc1ccc(OCCNC(=O)Cc2ccc(F)cc2)cc1`: the kinetic solubility came out at 29.2 µg/mL (≈ 102 µM).
Consider `CCN(CC)c1ccc(/C=C(\C#N)C(N)=O)cc1`, for which the kinetic solubility is over 36.5 µg/mL.
In the case of `O=S(=O)(Nc1cccc(Oc2ccc(Cl)cc2)n1)c1ccc(F)cc1` it was 41.9 µg/mL (≈ 111 µM); in that of `Cc1ccc(C(=O)NCCc2c[nH]c3ccccc23)s1`, over 42.7 µg/mL.
In the case of `O=C(CN1CCCc2ccccc21)NCCc1ccc(Cl)cc1` it was 19.3 µg/mL (≈ 58.7 µM).
In the case of `CC1CN(C(=O)CSc2nc(N)cc(N)n2)CC(C)O1` (stereo not given) it was over 44.6 µg/mL; in that of `CC1CCN(C(=O)/C(=C\c2ccco2)NC(=O)c2ccccc2)CC1`, over 50.8 µg/mL; in that of `O=C(O)c1ccccc1C(=O)NCCCn1ccnc1`, over 41 µg/mL.
`Cc1cc(C)c(C#N)c(SCc2ccc(C(=O)O)cc2)n1` yielded a kinetic solubility of over 44.8 µg/mL.
To `NS(=O)(=O)c1cc(C(=O)NCCc2ccccn2)ccc1Cl` belongs 49.1 µg/mL (≈ 144 µM); to `COc1ccc(C(=O)NC(C)CCc2ccccc2)cc1` (stereo not given), 41.9 µg/mL (≈ 148 µM); to `COC(=O)C(C)NC(=O)C1CCCN1C(=O)CNC(=O)OCc1ccccc1` (stereo not drawn) (Cbz-Gly-Pro-Ala-OMe; configuration not given here), over 58.7 µg/mL.
`NS(=O)(=O)c1cccc(NC(=O)CC2(CC(=O)O)CCCC2)c1` yielded a solubility (kinetic) of 41.7 µg/mL (≈ 123 µM).
To `CC1CC(=O)Nc2ccccc2N1C(=O)CSc1ccc2ccccc2n1` (stereo not given) belongs over 56.6 µg/mL.
For `CCc1ccc(NC(=O)N[C@H](C(=O)O)C(C)CC)cc1` (stereo not given in full), the solubility (kinetic) is over 41.8 µg/mL.
To `CN1CCC(OC(c2ccccc2)c2ccccc2)CC1.Cl` belongs over 47.7 µg/mL; to `CCC(=O)Nc1ccc(C=C(C(C)=O)C(C)=O)cc1`, over 38.9 µg/mL; to `CCCCOc1ncnc2c1[nH]c1ccc(C)cc12`, 0.6 µg/mL (≈ 2.35 µM).
For `NC(=O)c1c(NC(=O)c2ccc(F)cc2Cl)sc2c1CCC2`, the kinetic solubility was found to be 1 µg/mL (≈ 2.95 µM).
To `Cc1cccc(NC(=S)N2CCN(C(=O)c3ccco3)CC2)c1` belongs over 49.4 µg/mL; to `COc1ccc(NC(=O)NC(C)c2ccccc2)cc1` (stereo not given), 15.5 µg/mL (≈ 57.3 µM); to `Cc1ccc(Cl)cc1NC(=O)NCc1cccnc1`, 18.5 µg/mL (≈ 67.1 µM).
To `Cc1cc(C)cc(CN2C(=O)NC3(CCCCCC3)C2=O)c1` belongs 18.1 µg/mL (≈ 60.3 µM); to `CCOc1ccc(N=C2SCC(=O)N2CC)cc1`, 33.6 µg/mL (≈ 127 µM); to `OC(C#CCN1CCCC1)(c1ccccc1)c1cccnc1` (stereo not given), over 43.9 µg/mL.
To `CN1CCN(CCOc2ccc(-c3ccccc3)cc2)CC1.Cl` belongs over 49.9 µg/mL.
On to `Cc1cccc(NC(=O)Nc2cccnc2)c1C`, for which the solubility (kinetic) is over 36.2 µg/mL.
To `CSc1ccccc1C(=O)C1CCCN(Cc2ccccn2)C1` (stereo not given) belongs 44.8 µg/mL (≈ 137 µM); to `Cc1nc2ccccc2cc1C(=O)Nc1ccccc1Cl`, 6.7 µg/mL (≈ 22.6 µM).
Compound `Cc1ccc(C)c(OCCCNCc2ccccc2)c1.O=C(O)C(=O)O` registered a kinetic solubility of over 53.9 µg/mL.
The compound `COC(=O)c1c(C)noc1-c1ccc(Cl)cc1` returned a solubility (kinetic) of 1.6 µg/mL (≈ 6.36 µM).
`COC(=O)c1scc(C)c1NC(=O)/C=C/C(=O)O` showed a kinetic solubility of 38.8 µg/mL (≈ 144 µM).
`Cc1cc(=O)oc2cc(OCC(=O)N3CCOCC3)c(Cl)cc12` returned a solubility (kinetic) of over 50.7 µg/mL.
To `Cc1ccccc1/C=C1\C(=O)Nc2ccc(F)cc21` belongs 0.9 µg/mL (≈ 3.55 µM); to `O=C(C1CCN(S(=O)(=O)c2cccs2)CC1)N1CCCCC1`, over 51.4 µg/mL.
The compound `Cc1ccc2c(CN3CCOCC3)cc(=O)oc2c1C` gave a kinetic solubility of over 41 µg/mL.
To `CC(=O)N1CCc2cc(S(=O)(=O)NC3CCCCC3)ccc21` belongs 6.4 µg/mL (≈ 19.8 µM); to `COC(=O)/C=C1\NCCNC1=O`, over 25.5 µg/mL.
In the case of `O=C(Cc1ncc(C(F)(F)F)cc1Cl)NC1CC1` it was over 41.8 µg/mL; in that of `O=C1/C(=C/c2ccncc2)SC(=S)N1Cc1ccccc1`, 1.7 µg/mL (≈ 5.44 µM); in that of `OCCC1CN(Cc2nc3ccccc3[nH]2)CCN1C1CCCC1` (stereo not given), over 49.3 µg/mL.
In the case of `CCC1CC(C(=O)Nc2ccccc2)C(=O)O1` (stereo not given) it was over 35 µg/mL; in that of `O=C(NNC(=S)Nc1ccccc1C(F)(F)F)c1cccnc1`, over 51 µg/mL; in that of `O=C(O)CN1C(=O)C(=O)N(Cc2cccc(F)c2)C1=O`, over 42 µg/mL.
In turn, `Cc1onc(-c2ccccc2Cl)c1C(=O)NCc1ccc(F)cc1` returned a solubility (kinetic) of 45.3 µg/mL (≈ 131 µM).
In the case of `O=C(Nc1ccccc1Cl)c1cc[n+]([O-])cc1` it was over 37.3 µg/mL.
To `COc1ccccc1C1=NOC(CN2C(=O)c3ccccc3S2(=O)=O)C1` (stereo not given) belongs 34.6 µg/mL (≈ 92.9 µM).
In the case of `COc1cc(NC(=O)COC(=O)CC2CC3CCC2C3)cc(OC)c1` (stereo not given) it was 14.6 µg/mL (≈ 42 µM); in that of `Cc1cccc(C(=O)OCc2cncs2)c1`, 28.9 µg/mL (≈ 124 µM).
`O=C(COC(=O)c1cc(F)cc(F)c1)NCCCc1ccccc1` returned a solubility (kinetic) of 3.7 µg/mL (≈ 11.1 µM).
In the case of `CCc1sc(C(=O)NCc2ccccc2)cc1C` it was 28.7 µg/mL (≈ 111 µM).
